The target of this test is Glutamate NMDA receptor. The test can be described thus: The compound was evaluated for binding affinity against NMDA receptor ion-channel site using [3H]-MK 801 radioligand in rat brain membranes. The test is classed as cell membranes.

By IC50 is commonly meant the concentration that gives 50% inhibition. Low readings indicate higher potency, high ones lower potency.

Molecules are shown by their SMILES.

Turning to `C/C(=N\c1ccccc1C)Nc1ccccc1C`, the half-inhibitory concentration (IC50) worked out at 10 µM.

Take `C/C(=N\C12CC3CC(CC(C3)C1)C2)Nc1ccccc1C`: the half-inhibitory concentration (IC50) was found to be 10 µM.

Regarding `C/C(=N\C1CCCCC1)Nc1ccccc1C`, the IC50 was 10 µM.

Consider `C/C(=N\C1CC2CCC1C2)Nc1ccccc1C` (configuration not stated), for which the IC50 was 80 µM.

`C/C(=N\C1CCCCC1)NC12CC3CC(CC(C3)C1)C2`: the IC50 amounted to 10 µM.

`C/C(=N\C12CC3CC(CC(C3)C1)C2)NC12CC3CC(CC(C3)C1)C2`: the IC50 amounted to 10 µM.

`C/C(=N\c1ccc(Br)cc1C)Nc1ccc(Br)cc1C` yielded an IC50 of 9.11 µM.
